pIC50: −log10 of the molar value. In brackets after ≈: the same amount, converted by molar mass. Read-outs that look alike come from different tables or passages of the source.
How the values were obtained:
[1] = test system: Escherichia coli ATCC BAA-2452; test: microbe, parasite or virus in culture; conditions: for MIC: Escherichia coli
Protocol: (§1) Testing was performed according to CLSI (Clinical Laboratory Standards Institute) guidelines. Read out of the study was determination of MIC—minimal inhibitory concentration expressed in μg/mL.
(§2) Out of these PBS solutions, 76.8 μL was transferred to 1423.2 μL of MH media in deep well for testing compound alone. […] Out of these working solutions 100 μL were transferred to wells in the third column of 96-well assay plates. Assay plates were previously filled with 50 μL of MH media in all wells except for the wells in the third column.
(§3) Microorganisms used were all revived from skim milk storage at −70° C. by plating them on MH agar plates. The following day a single colony of each microorganism was again streaked on fresh agar plates. The next day, using direct colony suspension method, broth solutions that achieve turbidity equivalent to 0.5 McFarland standard for each microorganism were prepared. […] Out of these suspensions, actual inoculums were prepared by diluting them 100× with MH media giving final microorganism count of 2-8×10^5 CFU/mL. For each strain of microorganisms, 20 mL of these inoculum solutions were prepared. From the second to the twelfth column of 96-well plates, 50 μL of these solutions were transferred per well. To the first column, 50 μL per well of pure growth media was added. In this manner the first column was used as sterility control of media used, the second column was used as control of microorganism's growth and the rest of the plate was used for MIC determination. All plates were incubated for 16-24 h at 37° C.
(§4) MIC value was determined by visual inspection of bacterial growth within 96-well plates. The first column in which there was no visible growth of bacteria was determined as MIC value for peptide or combination tested in that particular row.

[2] = test system: Klebsiella pneumoniae ATCC BAA-2524; test: microbe, parasite or virus in culture; conditions: for MIC: Klebsiella pneumoniae
Protocol: as §1, §2, §3, §4

[3] = test system: Acinetobacter baumannii B2026, clinical isolate; test: microbe, parasite or virus in culture; conditions: for MIC: Acinetobacter baumannii
Protocol: as §1, §2, §3, §4

[4] = test system: Pseudomonas aeruginosa B1954, clinical isolate; test: microbe, parasite or virus in culture; conditions: for MIC: Pseudomonas aeruginosa
Protocol: as §1, §2, §3, §4

[5] = test system: Acinetobacter baumannii ATCC BAA-1605; test: microbe, parasite or virus in culture; conditions: for MIC: Acinetobacter baumannii
Protocol: as §1, §2, §3, §4

[6] = test system: Klebsiella pneumoniae B1945, clinical isolate; test: microbe, parasite or virus in culture; conditions: for MIC: Klebsiella pneumoniae
Protocol: as §1, §2, §3, §4

[7] = test system: Pseudomonas aeruginosa ATCC BAA-2108; test: microbe, parasite or virus in culture; conditions: for MIC: Pseudomonas aeruginosa
Protocol: as §1, §2, §3, §4

[8] = test system: Escherichia coli B1927, clinical isolate; test: microbe, parasite or virus in culture; conditions: for MIC: Escherichia coli
Protocol: as §1, §2, §3, §4

E. coli LMG15862 = test: microbe, parasite or virus in culture; assay type: cell-based, Escherichia coli; conditions: for MIC: Escherichia coli
How it was run: (§5)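 Liquid growth inhibition assay in polypropylene plates: compound serially diluted 1/2, MHB, final inoculum 5*10^5 CFU/mL, duplicates. Endpoint visual.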

[9] = test system: human red blood cells (HRBc); test: Hemolytic test
Protocol: Fresh human red blood cells (HRBc) were used for the hemolytic tests. After incubation with different concentrations of test compounds at 37° C. for 1 hour, the absorbance of the supernatant were measured.

Gram-negative pathogens = assay type: cell-based; conditions: alone; over the 5 Gram-negative pathogens
Protocol: (§6) Escherichia coli, Klebsiella pneumoniae, Pseudomonas aeruginosa, Acinetobacter baumannii, Enterobacter aerogenes were grown in Luria-Bertani (LB) broth shaken (200 rpm) or on LB agar at 37° C. […] MICs tests were performed in duplicate by a liquid growth inhibition microdilution assays in sterilized polypropylene microtiter plates according to Wiegand and […] [27]. […] The suspension was diluted in a ratio of 1:100 using Mueller Hinton Broth (MHB) and the final inoculum is 5*10^5 CFU/mL. […] The antimicrobials were diluted serially by 1/2 one by one and 50 uL diluted bacterial suspension were added to each well to make the final volume to be 100 uL. Growth control was accomplished by remove 10 uL from well 11 and dilute 1000 times to plate 1/10 suspension on the solid medium. […] The number of colonies on the control agar plate should be around 50 to ensure the concentration of the inoculum and the effectiveness of the experiment. The lowest concentration of the antimicrobials that inhibits visible growth of the indicator is identified as MIC.

K. pneumoniae LMG20218 = test: microbe, parasite or virus in culture; assay type: cell-based, Klebsiella pneumoniae; conditions: for MIC: Klebsiella pneumoniae
Protocol: as §6

P. aeruginosa LMG 6395 = test: microbe, parasite or virus in culture; assay type: cell-based, Pseudomonas aeruginosa; conditions: for MIC: Pseudomonas aeruginosa
Protocol: as §6

A. baumannii LMG01041 = test: microbe, parasite or virus in culture; assay type: cell-based, Acinetobacter baumannii; conditions: for MIC: Acinetobacter baumannii
How it was run: as §5

E. aerogenes LMG 02094 = test: microbe, parasite or virus in culture; assay type: cell-based, Enterobacter aerogenes; conditions: for MIC: Klebsiella aerogenes
How it was run: as §5

HEK293 cells = test: Cell viability (ATP levels, CellTiter-Glo); conditions: HEK293 cells
Protocol: ATP levels were measured by adding 50 μL of CellTiter-Glo reagent to each well and after 5 minutes of incubation luminescence was measured with SpectraMax i3.
96-well plates were seeded with HEK293 cells at concentration of 30,000 cells per well in 100 μL of DMEM growth media supplemented with 1% NEAA and 10% FBS. Border wells were filled with 100 μL of sterile PBS. The next day compounds were added to cells. Compounds were first 2× diluted in 96-well V-bottom plate in PBS. After that compounds were mixed with media in 96-deep-well plate for final concentrations. Growth media from 3 plates was aspirated and replaced with 100 μL of prepared compounds. Compounds were tested in duplicate. ATP levels were measured by adding 50 μL of CellTiter-Glo reagent to each well and after 5 minutes of incubation luminescence was measured with SpectraMax i3. […] The potential effects were then calculated and presented as IC50 values (μg/mL).

SMILES: CC[C@@H](C)[C@@H](NC(=O)[C@@H](CCCNC(=N)N)NC(=O)[C@@H](CCCNC(=N)N)NC(=O)[C@@H](Cc1ccccc1)NC(=O)[C@@H](CC(C)C)NC(=O)[C@@H](CCCNC(=N)N)NC(=O)[C@H](N)CCCNC(=N)N)C(=O)N[C@H](CC(C)C)C(=O)N[C@H](CCCNC(=N)N)C(=O)N[C@H](Cc1c[nH]c2ccccc12)C(=O)N[C@H](CC(C)C)C(N)=O [GNP-D6]
- MIC value ([1]; alone, MDR E. coli ATCC BAA-2452): 1.27 µM
- MIC value ([2]; alone, MDR K. pneumoniae ATCC BAA-2524): 2.53 µM
- MIC value ([3]; alone, A. baumannii B2026, colistin resistant): 2.53 µM
- MIC value ([4]; alone, MDR P. aeruginosa B1954): 2.53 µM
- MIC value ([5]; alone, MDR A. baumannii ATCC BAA-1605): 5.05 µM
- MIC value ([6]; alone, MDR K. pneumoniae B1945): 5.05 µM
- MIC value ([7]; alone, MDR P. aeruginosa ATCC BAA-2108): 5.05 µM
- MIC value ([8]; alone, MDR E. coli B1927): 1.27 µM
- MIC value (E. coli LMG15862; alone, E. coli LMG15862): 2 µM (≈ 3.17 µg/mL)
- HC50 ([9]; HRBc, 37° C., 1 hour): 168.9 µM
- HC50 relative to the working concentration ([9]; working concentration 2 μM): 80 fold
- MIC / concentration needed to inhibit growth (Gram-negative pathogens): 2 µM (≈ 3.17 µg/mL)
- MIC value (K. pneumoniae LMG20218; alone, K. pneumoniae LMG20218): 2 µM (≈ 3.17 µg/mL)
- MIC value (P. aeruginosa LMG 6395; alone, P. aeruginosa LMG 6395): 2 µM (≈ 3.17 µg/mL)
- MIC value (A. baumannii LMG01041; alone, A. baumannii LMG01041): 2 µM (≈ 3.17 µg/mL)
- MIC value (E. aerogenes LMG 02094; alone, E. aerogenes LMG 02094): 2 µM (≈ 3.17 µg/mL)
- pIC50 (HEK293 cells; read-out: IC50 (cell viability, ATP levels)): 4.48

SMILES: CN[C@H](CC(C)C)C(=O)N[C@H]1C(=O)N[C@@H](CC(N)=O)C(=O)N[C@H]2C(=O)N[C@H]3C(=O)N[C@H](C(=O)N[C@H](C(=O)O)c4cc(O)cc(O)c4-c4cc3ccc4O)[C@H](O)c3ccc(c(Cl)c3)Oc3cc2cc(c3O[C@@H]2O[C@H](CO)[C@@H](O)[C@H](O)[C@H]2O[C@H]2C[C@](C)(N)[C@H](O)[C@H](C)O2)Oc2ccc(cc2Cl)[C@H]1O [Vancomycin, reference compound]
- MIC ([1]; ATCCBAA2452): > 128 µg/mL
- MIC ([1]; ATCCBAA2452, read-out: MIC value): > 88.3 µM
- MIC ([2]; ATCCBAA2524): > 128 µg/mL
- MIC ([2]; ATCCBAA2524, read-out: MIC value): > 88.3 µM
- MIC [3]: 32 µg/mL
- MIC ([3]; read-out: MIC value): 22.1 µM
- MIC [4]: 128 µg/mL
- MIC ([4]; read-out: MIC value): 88.3 µM
- MIC ([5]; ATCCBAA1605): 64 µg/mL
- MIC ([5]; ATCCBAA1605, read-out: MIC value): 44.2 µM
- MIC [6]: > 128 µg/mL
- MIC ([6]; read-out: MIC value): > 88.3 µM
- MIC ([7]; ATCCBAA2108): > 128 µg/mL
- MIC ([7]; ATCCBAA2108, read-out: MIC value): > 88.3 µM
- MIC [8]: 128 µg/mL
- MIC ([8]; read-out: MIC value): 88.3 µM
- MIC (E. coli LMG15862; LMG15862, read-out: MIC value): 64 µM (≈ 92.8 µg/mL)
- MIC (E. coli LMG15862; LMG15862, read-out: MIC value of antimicrobial compounds alone): 64 µM (≈ 92.8 µg/mL)
- Hemolysis in the HRBc ([9]; even at 500 μM): did not induce hemolysis
- HC50 (hemolytic activity) ([9]; human red blood cells, 37° C., 1 hour): >500 µM
- MIC / concentration needed to inhibit growth (Gram-negative pathogens): at least 32 μM
- MIC (K. pneumoniae LMG20218; LMG20218, read-out: MIC value): 128 µM (≈ 186 µg/mL)
- MIC (K. pneumoniae LMG20218; LMG20218, read-out: MIC value of antimicrobial compounds alone): 128 µM (≈ 186 µg/mL)
- MIC (P. aeruginosa LMG 6395; LMG6395, read-out: MIC value): 128 µM (≈ 186 µg/mL)
- MIC (P. aeruginosa LMG 6395; LMG6395, read-out: MIC value of antimicrobial compounds alone): 128 µM (≈ 186 µg/mL)
- MIC (A. baumannii LMG01041; LMG01041, read-out: MIC value): 32 µM (≈ 46.4 µg/mL)
- MIC (A. baumannii LMG01041; LMG01041, read-out: MIC value of antimicrobial compounds alone): 32 µM (≈ 46.4 µg/mL)
- MIC (E. aerogenes LMG 02094; LMG02094, read-out: MIC value): 192 µM (≈ 278 µg/mL)
- MIC (E. aerogenes LMG 02094; LMG02094, read-out: MIC value of antimicrobial compounds alone): 192 µM (≈ 278 µg/mL)
- Effect on ATP levels (HEK293 cells; at concentrations tested): do not affect the ATP levels

Reference: patent US20200368315A1, “ANTIMICROBIAL PEPTIDES AND ADMIXTURES THEREOF SHOWING ANTIMICROBIAL ACTIVITY AGAINST GRAM-NEGATIVE PATHOGENS” (priority 2017, published 2020)
